Holding throughout (experiment): NCI anticancer screen, dose series, 48 h
Assay [1] relates to CCRF-CEM leukemia.
Assay [2] has as its system COLO 205 colon.
In assay [3] the test system is MALME-3M melanoma.
Assay [4] deals with NCI-H23 lung.
Assay [5] concerns NCI-H460 lung.
Assay [6] concerns OVCAR-4 ovarian.
Assay [7] has as its system SF-295 CNS.
Assay [8] relates to TK-10 renal.
In assay [9] the test system is UACC-257 melanoma.
Assay [10] deals with HOP-92 NSCLC.
For assay [11], the system named is OVCAR-3 ovarian.

The results in this text go back to PubChem BioAssay (NCI).

Several values for one entry are separate records, joined by “and”; a condition that tells them apart may be missing. Identical values can stand only once.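 Grown in 96-well plates, cells were treated for 48 hours with each compound at five concentrations. Insufficient inhibition: endpoint recorded as highest concentration tested. At the GI50, growth is halved. TGI: concentration producing complete growth inhibition.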 Where a SMILES comes first, the peptide text is derived from it.

For the molecule `CCOC(=O)C1(C/C=C/CCl)CCCC1=O` (stereo not drawn), the TGI is above 100 µM in assay [1]; 72.9 µM in assay [2]; 45.4 µM in [3]; 38.3 µM in [4]; above 100 µM in assay [5]; 93.7 µM in assay [6]. The figures for the TGI in assay [7], in assay [8] and in assay [9] were above 100 µM, 68.4 µM and above 100 µM, respectively.

With `COc1cc(/C=C2\N=C(c3ccccc3)N(c3ccc(C(=O)c4ccccc4)cc3N3C(=O)/C(=C/c4ccc(O)c(OC)c4)N=C3c3ccccc3)C2=O)ccc1O`, the TGI in [1] is above 100 µM; in assay [2], 32.3 µM; in assay [10], above 100 µM; in [5] it was 20.2 µM; in assay [11] it was 8.7 µM; in [6] it was 84.4 µM. In addition, the TGI in assay [7] worked out at 28.8 µM; in assay [8] it was 51.9 µM; in [9], 39.6 µM.

Consider `CCN(CC)CC[n+]1ccc2c(C)c3[nH]c4ccc(O)cc4c3c(C)c2c1`, for which the GI50 is 0.808 µM in [1]; 2.6 µM in assay [2]; 2.33 µM in [10]; 3.91 µM in [3]; 2.45 µM in assay [4]; 0.147 µM in assay [5]. For the same molecule, the GI50 in assay [11] was 6.62 µM; in [9], 24.2 µM. The TGI in assay [1] is 33 µM and 23.1 µM; in assay [2], 17.4 µM and 31 µM; in [10], 32.6 µM and 12.4 µM; in assay [3], 19.3 µM and 22.3 µM; in [4] it was 25.1 µM and 22.5 µM; in [5] it was 13.3 µM and 3.45 µM. Also, the TGI was 57.9 µM and 51.9 µM in [11]; 23.4 µM and 30.4 µM in assay [6]; 30.1 µM and 28.4 µM in [7]; 43.9 µM and 91.6 µM in assay [9].

Regarding `CCOC(=O)Cn1c2ccc(Br)cc2c2nc3ccccc3nc21`, the TGI in [1], in assay [2], in [10], in assay [4], in assay [11] and in assay [7] was above 100 µM in each case. Also, the TGI in [8] and in assay [9] was above 100 µM throughout.

As for `Cc1[nH]c(=O)[nH]c(=O)c1/C=C/C(=O)NC(CO)CS(=O)CS(C)=O` (stereo not drawn), the TGI in [1] amounted to 111 µM; in [2], 132 µM; in [10], 44 µM; in [3], 57.9 µM; in [4], 43.7 µM; in assay [5], 68.1 µM. Moreover, the TGI amounted to 31.1 µM in [11], 14.9 µM in assay [6], 77.5 µM in [7] and 151 µM in assay [9].

With `COC(=O)C1=C(C)N2CCSC2(C)C(C(=O)OC)C1c1cccc(Cl)c1` (stereo not drawn), the TGI in assay [1] was 69.5 µM; in [2], 35.4 µM; in [10], 53.2 µM; in assay [4], 73.8 µM; in assay [5] it was 74.5 µM; in assay [11], 34.6 µM. Besides, the TGI in assay [6] was above 100 µM; in assay [7] it was 34 µM; in assay [8], above 100 µM; in assay [9], 21.7 µM.

With `C[Si](C)(C)c1ccc(-c2c3ccc(-c4cc(Br)cc(Br)c4)nc3nc3nc(-c4cc(Br)cc(Br)c4)ccc23)cc1`, the TGI in assay [2], in assay [10], in assay [3], in [4], in assay [5] and in assay [11] was above 100 µM throughout. The TGI in [6], in assay [7], in assay [8] and in assay [9] was above 100 µM each time.

For the molecule `Cc1c(/C=N/NC(=S)Nc2ccc(Cl)cc2)c(=O)n(-c2ccccc2)n1C`, the TGI in assay [1] is above 100 µM; in assay [2] it was above 100 µM; in [3], above 60.3 µM; in assay [4], 54.5 µM; in assay [5], above 61 µM; in assay [11], above 65.3 µM. In addition, the TGI in [6] is above 57.1 µM; in assay [7] it was 44.5 µM; in assay [8], above 58.3 µM; in [9], above 100 µM.

Consider `O=C(NC(Cc1ccc(Br)cc1)C(=O)O)c1ccc(I)cc1` (stereo not drawn), for which the TGI in [1], in assay [2], in [10], in assay [3], in assay [4] and in assay [5] was above 100 µM each time. Also, the TGI in assay [11], in assay [6], in assay [7] and in assay [9] was above 100 µM in each case.

Take `NC(=O)C1CCCN1C(=O)C(N)Cc1ccccc1` (stereo not drawn) (H-Phe-Pro-NH2; configuration not given here): the TGI in [1], in assay [2], in assay [3], in assay [5], in assay [11] and in assay [6] was above 100 µM throughout. Also, the TGI in assay [7] and in assay [8] was above 100 µM in each case.

With `Cc1cc2c(c(O)c1-c1c(C)cc(O)c3c1C(=O)C=CC3=O)C(=O)C=CC2=O`, the TGI worked out at 0.656 µM in [2]; 18.4 µM in assay [4]; 44.5 µM in assay [5]; 5.99 µM in assay [11]; 10.3 µM in assay [6]; 33.1 µM in [7]. In [8], this molecule returned a TGI of 3.12 µM.

With `CSc1nc(CO)c(CO)n1C`, the TGI in [1], in assay [2], in [10], in assay [4], in assay [5] and in assay [11] was above 100 µM throughout. Further, the TGI in assay [6], in [7] and in assay [9] was above 100 µM each time.

For `C[C@@H]1C(=O)O[C@H]1[C@H](O)CO`, the TGI in assay [1], in assay [2], in [10], in assay [4], in assay [5] and in assay [11] was above 100 µM in each case. In addition, the TGI in [6], in [7], in assay [8] and in assay [9] was above 100 µM each time.
